According to publication PMC5433008 (BMC Neuroscience, 2017):
Where no end group is shown, it is not given here.

Key:
[1] = test system: NMDA-evoked currents in cultured rat embryonic hippocampal neurons (NMDAr)
[2] = test system: voltage-dependent Ca^+2 channels; conditions: 1 µM; ref [40]; cited from earlier work
[3] = test system: NMDA/GluN2B; conditions: Ro 25-6981 1 µM; ref [40]; cited from earlier work
[4] = test system: voltage-dependent Na^+ channels; conditions: 1 µM; ref [40]; cited from earlier work
[5] = test system: GluN1a–GluN2B; conditions: cited from earlier work
[6] = test system: NMDA-evoked currents in cortical neurons; conditions: cited from earlier work
[7] = test system: NMDA-evoked currents in hippocampal neurons; conditions: cited from earlier work
[8] = test system: NMDAr containing the GluN2B subunit; conditions: cited from earlier work

Row | Compound | block of NMDA-evoked currents [1] | reversibility of block [1] | use-dependence of block [1] | block of NMDA-evoked currents, percent (GluN2B blocker) [1] | effect on voltage-dependent Ca^+2 channels [2] | 1 µM relative to the concentration producing 50% inhibition of NMDA/GluN2B-mediated currents [3] | effect on voltage-dependent Na^+ channels [4] | IC50 [5] | recovery of NMDA-evoked currents after washout [5] | IC50 [6] | recovery of NMDA-evoked current after washout [6] | reversibility [6] | IC50 [7] | selectivity for NMDAr containing the GluN2B subunit [8]
1 | C[C@]12N[C@H](Cc3ccccc31)c1ccccc12 [(+)MK-801, Dizocilpine] | blocked the NMDA-evoked currents | irreversible | increased with exposures to the blocker | – | – | – | – | – | – | – | – | – | – | –
2 | C[C@@H](CN1CCC(Cc2ccccc2)CC1)[C@@H](O)c1ccc(O)cc1 [Ro 25-6981] | – | no reversibility following 4 min of washout | use-dependent | 70% | minimal or no effects | 100 fold | minimal or no effects | – | – | – | – | – | – | –
3 | conantokin-G: 17 amino acid peptide (MW 2264.2 Da), cone snail toxin selective for NMDAr containing GluN2B (GEEELQENQELIREKSN; ends and bridges not checked; UniProt P07231 81-97, looked up) | – | – | – | – | – | – | – | 100 nM | about 80% | 480 nM | about 10% | very slow and incomplete reversibility | 480 nM | selective for NMDAr containing the GluN2B subunit
